{"source": "patent US20160361258A1", "about": "(priority 2015, published 2016)", "key": {"in vivo": {"assay": "in vivo", "conditions": "delivered sublingually or transmucosally", "protocol": "7-methoxyflavone is an aromatase inhibitor. Aromatase inhibitors work by inhibiting the action of the enzyme aromatase, which converts androgens into estrogens by a process called aromatization. 7-methoxyflavone is a compound having poor bioavailability of about 5% when ingested. According to an embodiment of the present invention, from about 5 mg to 50 mg, and preferably from about 20 mg to 30 mg of 7-methoxyflavone may be included in the formulations and dosage forms of the present invention, when delivered sublingually or transmucosally. […] According to an embodiment, the 7-methoxyflavone may be from a plant extract. 7-methoxyflavone has been found in Meliaceae and Rutaceae plants. According to an embodiment, the 7-methoxyflavone may therefore be from an extract containing at least 90% 7-methoxyflavone, standardized. Preferably, extract contains at least […] 7-methoxyflavone, standardized.\nAccording to an embodiment of the present invention, from about 5 mg to 50 mg, and preferably from about 20 mg to 30 mg of 7,8-benzoflavone may be included in the formulations and dosage forms of the present invention, when delivered sublingually or transmucosally. According to an embodiment, the half-life of 7,8-benzoflavone is about 1-2 h when delivered sublingually or transmucosally."}, "[1]": {"conditions": "in vivo; cited from earlier work"}, "[2]": {"conditions": "prior art U.S. Pat. No. 5,880,117; humans; cited from earlier work"}}}
{"smiles": "COc1ccc2c(=O)cc(-c3ccccc3)oc2c1", "note": "[7-methoxyflavone]", "values": [{"measurement": "half-life", "setting": "in vivo", "result": "8 to 12", "unit": "h"}, {"measurement": "bioavailability", "setting": "[1]", "result": "about 5%"}]}
{"smiles": "O=c1cc(-c2ccccc2)oc2c1ccc1ccccc12", "note": "[7,8-benzoflavone, 2-phenyl-benzo(h)chromen-4-one]", "values": [{"measurement": "half-life", "setting": "in vivo", "result": "1 to 2", "unit": "h"}]}
{"smiles": "C[C@]12CC[C@H]3[C@@H](CCC4=C[C@@H](O)CC[C@@]43C)[C@@H]1CC[C@@H]2O", "note": "[4-androstene-3β, 17β-diol]", "values": [{"measurement": "time of concentration peak after administration", "setting": "[2]", "result": "≤ 90", "unit": "min"}]}
